Data on seven molecules can be found in ChEMBL document CHEMBL1201862, “PubChem BioAssay data set” (2004).

Some test systems named below: DU-145; SW-620; NCI/ADR-RES; NCI-H460; OVCAR-4; EKVX; MOLT-4; U-251; NCI-H226; HCT-116; OVCAR-8; A498; 786-0; UO-31; UACC-257; NCI-H522; SF-539; ACHN; Hs-578T; NCI-H23.
Common to all, as to assay: inhibition of tumour cell growth, NCI panel, 48 h

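In this assay, cells in 96-well plates receive the compound at five concentrations for 48 hours. Endpoints are linearly interpolated between the surrounding concentrations. Here, GI50 denotes the concentration required for 50% inhibition of growth.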 Active and inactive are the calls of the source. Cut-off read from the data, not from the text of the source: active = GI50 up to about 1.1 µM and inactive = higher. Where only a bound is given, the exact number is not on record here.

Regarding `O=c1[nH]c(=O)n(C2OC(CO)C(O)C(O)C2O)cc1F` (stereo not given), the GI50 with DU-145, in the assay with SW-620, in the assay on NCI/ADR-RES, with NCI-H460, in the assay with OVCAR-4 and in the assay on EKVX was > 100 µM (inactive) in each case. Moreover, the GI50 in the assay on MOLT-4, in the assay with U-251, with NCI-H226, in the assay with HCT-116, with OVCAR-8 and in the assay on A498 was > 100 µM (inactive) throughout. Further, the GI50 in the assay on 786-0, with UO-31, in the assay with UACC-257, in the assay with NCI-H522, in the assay on SF-539 and with ACHN was > 100 µM (inactive) throughout. For the same molecule, the GI50 in the assay on Hs-578T and with NCI-H23 was > 100 µM (inactive) throughout.

In the case of `COc1cc(C(=O)c2cocc2C(=O)c2ccc3c(c2)OCO3)cc(OC)c1OC`, the GI50 in the assay with DU-145 was 1.17 µM (inactive); in the assay on SW-620, 0.316 µM (active); in the assay with NCI/ADR-RES, 0.142 µM (active); in the assay on NCI-H460, 0.658 µM (active); in the assay with OVCAR-4, 18.5 µM (inactive); in the assay with EKVX, 6.64 µM (inactive). The GI50 in the assay on MOLT-4 is 0.991 µM (active); in the assay on U-251 it was 0.537 µM (active); with NCI-H226 it was 1.8 µM (inactive); with HCT-116, 0.333 µM (active); in the assay on OVCAR-8, 1.35 µM (inactive); in the assay with A498 it was 4.05 µM (inactive). For the same molecule, the GI50 in the assay on 786-0 is 0.57 µM (active); in the assay on UO-31, 1.58 µM (inactive); with UACC-257, 0.531 µM (active); in the assay on NCI-H522, 0.268 µM (active); in the assay with SF-539 it was 0.399 µM (active); with ACHN it was 0.977 µM (active). The values for the GI50 in the assay with Hs-578T and in the assay with NCI-H23 were 0.274 µM (active) and 0.826 µM (active), respectively.

On to `CC1OC(O[C@@H]2OC=C(C=O)[C@@]3(O)CC[C@H](C)[C@@H]23)C(O)C(O)C1O` (stereo not given in full), for which the GI50 in the assay with DU-145, in the assay on SW-620, with NCI/ADR-RES, in the assay on NCI-H460, with OVCAR-4 and in the assay with EKVX was > 100 µM (inactive) in each case. Moreover, the GI50 in the assay with MOLT-4, in the assay with U-251, with NCI-H226, with HCT-116, in the assay with OVCAR-8 and with A498 was > 100 µM (inactive) each time. For the same molecule, the GI50 in the assay with 786-0, with UO-31, in the assay on UACC-257, with NCI-H522, in the assay with SF-539 and with ACHN was > 100 µM (inactive) in each case. Besides, the GI50 with Hs-578T and in the assay on NCI-H23 was > 100 µM (inactive) in each case.

With `[O-][n+]1ccc(NO)c2ccccc21`, the GI50 is 1.5 µM (inactive) with DU-145; 1.56 µM (inactive) with SW-620; 1.54 µM (inactive) in the assay with NCI/ADR-RES; 0.295 µM (active) in the assay with NCI-H460; 1.9 µM (inactive) with OVCAR-4; 2.21 µM (inactive) in the assay with EKVX. Further, the GI50 in the assay with MOLT-4 was 0.6 µM (active); in the assay on U-251, 0.658 µM (active); in the assay on NCI-H226, 1.87 µM (inactive); with HCT-116 it was 2.03 µM (inactive); in the assay on OVCAR-8, 0.561 µM (active); with A498, 0.673 µM (active). Besides, the GI50 in the assay on 786-0 was 2.05 µM (inactive); in the assay on UO-31, 1.75 µM (inactive); in the assay on UACC-257 it was 7.36 µM (inactive); in the assay with NCI-H522 it was 1.51 µM (inactive); with SF-539 it was 0.679 µM (active); in the assay on ACHN, 0.796 µM (active). Besides, the GI50 in the assay with Hs-578T is 2.09 µM (inactive); in the assay on NCI-H23, 1.58 µM (inactive).

As to `COc1ccc(CCc2cc(OC)c(OC)c(OC)c2)cc1`, the GI50 in the assay with DU-145 was 0.0935 µM (active); with SW-620, 0.0171 µM (active); with NCI/ADR-RES, 0.0622 µM (active); with NCI-H460 it was 0.0277 µM (active); with OVCAR-4, 5.05 µM (inactive); in the assay with EKVX it was 1.18 µM (inactive). Further, the GI50 with MOLT-4 is 0.0331 µM (active); in the assay on U-251, 0.0247 µM (active); with NCI-H226 it was 0.386 µM (active); with HCT-116, 0.0214 µM (active); with OVCAR-8, 0.1 µM (active); with A498, < 0.0207 µM (active). Besides, the GI50 is 0.15 µM (active) in the assay with 786-0; 1.95 µM (inactive) with UO-31; 0.544 µM (active) in the assay with UACC-257; 0.0195 µM (active) in the assay on NCI-H522; 0.0258 µM (active) in the assay with SF-539; 0.824 µM (active) in the assay on ACHN. For the same molecule, the GI50 with Hs-578T is 0.0438 µM (active); in the assay on NCI-H23, 0.0743 µM (active).

On to `CC1OC(OC2C(O[C@H]3CC[C@@]4(C)[C@@H](CC[C@@H]5[C@@H]4CC[C@]4(C)[C@@H]6[C@H](C[C@@H]54)O[C@]4(CC[C@@H](C)CO4)[C@H]6C)C3)OC(CO)C(OC3OC(CO)C(O)C(OC4OCC(O)C(O)C4O)C3OC3OCC(O)C(O)C3O)C2O)C(O)C(O)C1O` (stereo not given in full), for which the GI50 with DU-145 was 1.32 µM (inactive); with SW-620, 0.251 µM (active); in the assay on NCI/ADR-RES it was 1.58 µM (inactive); with NCI-H460, 0.625 µM (active); with OVCAR-4, 1.47 µM (inactive); in the assay on EKVX, 1.51 µM (inactive). Also, the GI50 in the assay with MOLT-4 is 1.04 µM (active); in the assay with U-251, 0.514 µM (active); with NCI-H226, 1.87 µM (inactive); with HCT-116 it was 0.321 µM (active); in the assay on OVCAR-8 it was 1.49 µM (inactive); in the assay with A498, 1.68 µM (inactive). Further, the GI50 with 786-0 is 1.64 µM (inactive); in the assay on UO-31, 1.04 µM (active); in the assay with UACC-257, 1.3 µM (inactive); in the assay on NCI-H522 it was 0.676 µM (active); in the assay on SF-539, 0.303 µM (active); in the assay with ACHN, 0.942 µM (active). For the same molecule, the GI50 in the assay on Hs-578T was 1.03 µM (active); in the assay with NCI-H23 it was 1.52 µM (inactive).

Turning to `O=C(O)CC1NC(/C(=C/c2ccccc2)NC(=O)c2ccccc2)OC1=O` (stereo not given), the GI50 was 52.4 µM (inactive) in the assay with DU-145; 19.5 µM (inactive) with SW-620; 21.7 µM (inactive) with NCI/ADR-RES; 22.2 µM (inactive) in the assay on NCI-H460; 51.1 µM (inactive) in the assay with OVCAR-4; 39.6 µM (inactive) in the assay with EKVX. The GI50 with MOLT-4 is 17.7 µM (inactive); with U-251, 18.4 µM (inactive); in the assay with NCI-H226 it was 21.8 µM (inactive); in the assay with HCT-116, 18.5 µM (inactive); in the assay with OVCAR-8 it was 25.9 µM (inactive); in the assay with A498, > 100 µM (inactive). The GI50 in the assay with 786-0 was 29.4 µM (inactive); in the assay on UO-31 it was 23.8 µM (inactive); with UACC-257 it was > 100 µM (inactive); in the assay with NCI-H522, 16.5 µM (inactive); with SF-539, 21 µM (inactive); with ACHN it was > 100 µM (inactive). The figures for the GI50 in the assay on Hs-578T and in the assay with NCI-H23 were 44.8 µM (inactive) and 42.7 µM (inactive), respectively.
